This is an account of results in ChEMBL document CHEMBL4725357, “Elucidating the Structural Requirement of Uridylpeptide Antibiotics for Antibacterial Activity” (J Med Chem, 2020).

In data set [1] the test system is Pseudomonas aeruginosa. In words: Antibacterial activity against Pseudomonas aeruginosa PAO1 incubated for 18 hrs by CLSI based broth microdilution method. The data set is classed as functional.
Data set [2] concerns Pseudomonas aeruginosa. In words: Antibacterial activity against Pseudomonas aeruginosa serotype A IID1001 incubated for 18 hrs by CLSI based broth microdilution method. In kind it is functional. In general terms: In broth dilution the organism is exposed to a series of concentrations in liquid medium.
For data set [3], the system named is Pseudomonas aeruginosa. In words: Antibacterial activity against Pseudomonas aeruginosa isolate 2931 incubated for 18 hrs by CLSI based broth microdilution method. In kind it is functional.
The subject of data set [4] is Pseudomonas aeruginosa. As to the kind of experiment: Antibacterial activity against Pseudomonas aeruginosa serotype E IID1130 incubated for 18 hrs by CLSI based broth microdilution method. The data set is classed as functional.
Data set [5] has as its system Pseudomonas aeruginosa. In words: Antibacterial activity against Pseudomonas aeruginosa serotype C IID1021 incubated for 18 hrs by CLSI based broth microdilution method. The data set is classed as functional.
Data set [6] relates to Pseudomonas aeruginosa. As to the kind of experiment: Antibacterial activity against Pseudomonas aeruginosa serotype I IID1010 incubated for 18 hrs by CLSI based broth microdilution method. The data set is classed as functional.
Data set [7] concerns Pseudomonas aeruginosa. As to the kind of experiment: Antibacterial activity against Pseudomonas aeruginosa serotype B IID1007 incubated for 18 hrs by CLSI based broth microdilution method. In kind it is functional.
For data set [8], the system named is Pseudomonas aeruginosa. As to the kind of experiment: Antibacterial activity against Pseudomonas aeruginosa isolate 9728b incubated for 18 hrs by CLSI based broth microdilution method. The data set is classed as functional.
The test system of data set [9] is Pseudomonas aeruginosa. As to the kind of experiment: Antibacterial activity against Pseudomonas aeruginosa serotype B IID5004 incubated for 18 hrs by CLSI based broth microdilution method. The data set is classed as functional.
Data set [10] deals with Pseudomonas aeruginosa. As to the kind of experiment: Antibacterial activity against Pseudomonas aeruginosa serotype M IID1015 incubated for 18 hrs by CLSI based broth microdilution method. In kind it is functional.
The subject of data set [11] is Pseudomonas aeruginosa. In words: Antibacterial activity against Pseudomonas aeruginosa isolate 1483 incubated for 18 hrs by CLSI based broth microdilution method. The data set is classed as functional.
The subject of data set [12] is Pseudomonas aeruginosa. In words: Antibacterial activity against Pseudomonas aeruginosa serotype H IID1009 incubated for 18 hrs by CLSI based broth microdilution method. The data set is classed as functional.
In data set [13] the test system is Pseudomonas aeruginosa. In words: Antibacterial activity against Pseudomonas aeruginosa serotype G IID1020 incubated for 18 hrs by CLSI based broth microdilution method. The data set is classed as functional.
In data set [14] the test system is Pseudomonas aeruginosa. As to the kind of experiment: Antibacterial activity against Pseudomonas aeruginosa isolate 1485 incubated for 18 hrs by CLSI based broth microdilution method. The data set is classed as functional.
The nature of data set [15]: Inhibition of Staphylococcus aureus MraY using UDPMurNAc-dansylpentapeptide as substrate incubated for 3 to 4 hrs by fluorescence method.
Data set [16] deals with Pseudomonas aeruginosa. In words: Antibacterial activity against Pseudomonas aeruginosa ATCC 27853 incubated for 18 hrs by CLSI based broth microdilution method. The data set is classed as functional.
In data set [17] the test system is Pseudomonas aeruginosa. In words: Antibacterial activity against Pseudomonas aeruginosa serotype B IID1002 incubated for 18 hrs by CLSI based broth microdilution method. In kind it is functional.
In data set [18] the test system is Pseudomonas aeruginosa. As to the kind of experiment: Antibacterial activity against Pseudomonas aeruginosa serotype F IID1006 incubated for 18 hrs by CLSI based broth microdilution method. The data set is classed as functional.
Data set [19] has as its system Pseudomonas aeruginosa. As to the kind of experiment: Antibacterial activity against Pseudomonas aeruginosa serotype B IID1013 incubated for 18 hrs by CLSI based broth microdilution method. In kind it is functional.
The subject of data set [20] is Pseudomonas aeruginosa. In words: Antibacterial activity against Pseudomonas aeruginosa serotype K IID1012 incubated for 18 hrs by CLSI based broth microdilution method. In kind it is functional.
Data set [21] deals with Pseudomonas aeruginosa. As to the kind of experiment: Antibacterial activity against Pseudomonas aeruginosa isolate 2867 incubated for 18 hrs by CLSI based broth microdilution method. The data set is classed as functional.
Data set [22] has as its system HepG2. In words: Cytotoxicity against human HepG2 cells after 24 hrs by CCK-8 assay. The settings on record: HepG2, 24 h. In kind it is cell-based. A general note: Formazan colour is commonly taken as a measure of viable cells.
Data set [23] can be described thus: Inhibition of Staphylococcus aureus MraY using UDPMurNAc-dansylpentapeptide as substrate incubated for 3 hrs by fluorescence method.
Data set [24] deals with Pseudomonas aeruginosa. In words: Antibacterial activity against Pseudomonas aeruginosa serotype J IID1011 incubated for 18 hrs by CLSI based broth microdilution method. In kind it is functional.
Data set [25] has as its system Pseudomonas aeruginosa. In words: Antibacterial activity against Pseudomonas aeruginosa serotype L IID5141 incubated for 18 hrs by CLSI based broth microdilution method. The data set is classed as functional.
The test system of data set [26] is Pseudomonas aeruginosa. In words: Antibacterial activity against Pseudomonas aeruginosa serotype D IID1004 incubated for 18 hrs by CLSI based broth microdilution method. In kind it is functional.
Data set [27] has as its system Pseudomonas aeruginosa. As to the kind of experiment: Antibacterial activity against multidrug-resistant Pseudomonas aeruginosa MDRP62 incubated for 18 hrs by CLSI based broth microdilution method. The data set is classed as functional.
In data set [28] the test system is Pseudomonas aeruginosa. In words: Antibacterial activity against Pseudomonas aeruginosa serotype M IID5018 incubated for 18 hrs by CLSI based broth microdilution method. In kind it is functional.
Data set [29] relates to Pseudomonas aeruginosa. As to the kind of experiment: Antibacterial activity against Pseudomonas aeruginosa incubated for 18 hrs by CLSI based broth microdilution method. The data set is classed as functional.
Data set [30] relates to Pseudomonas aeruginosa. In words: Resistance index, ratio of MIC for Pseudomonas aeruginosa PAO1 incubated overnight to MIC for Pseudomonas aeruginosa PAO1 incubated for 18 hrs. The data set is classed as functional.
A short description of data set [31]: Substrate activity at NppA1A2BCD assessed as antibacterial activity against Pseudomonas aeruginosa PAO1 PW4181. The data set is classed as ADME. The settings on record: pseudomonas aeruginosa pao1, 720 h; time 30 day.
Data set [32] is described as follows: Substrate activity at NppA1A2BCD assessed as antibacterial activity against mureidomycin-resistant Pseudomonas aeruginosa PAO1 harboring NppA1A2BCD mutant measured at day 2 post mureidomycin-challenge. In kind it is ADME.
Data set [33] is described as follows: Substrate activity at NppA1A2BCD assessed as antibacterial activity against Pseudomonas aeruginosa PAO1 PW4182. The data set is classed as ADME. The settings on record: pseudomonas aeruginosa pao1, 720 h; time 30 day.
Data set [34] can be described thus: Substrate activity at NppA1A2BCD assessed as antibacterial activity against mureidomycin-resistant Pseudomonas aeruginosa PAO1 harboring NppA1A2BCD mutant measured at day 1 post mureidomycin-challenge. In kind it is ADME.
A short description of data set [35]: Substrate activity at NppA1A2BCD assessed as antibacterial activity against mureidomycin-resistant Pseudomonas aeruginosa PAO1 harboring NppA1A2BCD mutant measured at day 30 post mureidomycin-challenge. The data set is classed as ADME.

≈ marks a conversion by molar mass, not a printed value. Where only a bound is given, the exact number is not on record here.

In general, IC50 refers to the point on the concentration scale where inhibition reaches its midpoint. For the molecule `C[C@H](N)C(=O)N(C)[C@@H](C)[C@H](NC(=O)[C@H](C)NC(=O)N[C@@H](Cc1c[nH]c2ccccc12)C(=O)O)C(=O)N/C=C1\O[C@@H](n2ccc(=O)[nH]c2=O)[C@H](O)[C@@H]1O`, the MIC in [1] is 16 µg/mL (≈ 22 µM); in [2] it was over 128 µg/mL; in [3], over 128 µg/mL; in data set [4], over 128 µg/mL; in data set [5], 16 µg/mL (≈ 22 µM); in data set [6], over 128 µg/mL. Also, the MIC was over 128 µg/mL in data set [7]; over 128 µg/mL in data set [8]; 64 µg/mL (≈ 87.9 µM) in data set [9]; over 128 µg/mL in data set [10]; over 128 µg/mL in [11]; 32 µg/mL (≈ 44 µM) in [12]. In addition, the MIC in data set [13] is over 128 µg/mL; in data set [14], 16 µg/mL (≈ 22 µM); in [16], 32 µg/mL (≈ 44 µM); in data set [17] it was over 128 µg/mL; in data set [18], over 128 µg/mL; in [19], over 128 µg/mL. For the same molecule, the MIC is 64 µg/mL (≈ 87.9 µM) in data set [20]; 32 µg/mL (≈ 44 µM) in data set [21]; over 128 µg/mL in [24]; 32 µg/mL (≈ 44 µM) in data set [25]; over 128 µg/mL in data set [26]; over 128 µg/mL in [27]. In [28], this molecule yielded an MIC of over 128 µg/mL. Also, the figures for the 50% inhibitory concentration (IC50) in data set [15], in data set [22] and in data set [23] were 42 nM, over 100000 nM and 44 nM, respectively.

The molecule `C[C@@H]([C@H](NC(=O)[C@H](CC[S+](C)[O-])NC(=O)N[C@@H](Cc1cccc(O)c1)C(=O)O)C(=O)N/C=C1\O[C@@H](n2ccc(=O)[nH]c2=O)[C@H](O)[C@@H]1O)N(C)C(=O)[C@@H](N)Cc1cccc(O)c1` (stereo partly drawn) returned an MIC in data set [29] of 32 µg/mL (≈ 36.7 µM). This molecule also yielded an IC50 in data set [23] of 4.7 nM.

As for `CSCC[C@H](NC(=O)N[C@@H](Cc1cccc(O)c1)C(=O)O)C(=O)N[C@H](C(=O)N/C=C1\O[C@@H](n2ccc(=O)[nH]c2=O)[C@H](O)[C@@H]1O)[C@H](C)N(C)C(=O)[C@@H](N)Cc1cccc(O)c1`, the MIC is 4 µg/mL (≈ 4.67 µM) in data set [1]; 64 µg/mL (≈ 74.7 µM) in data set [2]; over 128 µg/mL in [31]; 16 µg/mL (≈ 18.7 µM) in data set [3]; 16 µg/mL (≈ 18.7 µM) in data set [4]; 8 µg/mL (≈ 9.34 µM) in [5]. The MIC in [6] turned out to be 32 µg/mL (≈ 37.3 µM); in data set [7] it was 32 µg/mL (≈ 37.3 µM); in [8], 32 µg/mL (≈ 37.3 µM); in data set [9], 8 µg/mL (≈ 9.34 µM); in data set [10], 16 µg/mL (≈ 18.7 µM); in data set [11], 8 µg/mL (≈ 9.34 µM). The MIC in data set [12] was 8 µg/mL (≈ 9.34 µM); in data set [13], 8 µg/mL (≈ 9.34 µM); in [32], over 64 µg/mL; in [14], 4 µg/mL (≈ 4.67 µM); in data set [33] it was over 128 µg/mL; in data set [34] it was over 64 µg/mL. Moreover, the MIC is 4 µg/mL (≈ 4.67 µM) in [16]; 16 µg/mL (≈ 18.7 µM) in data set [17]; over 128 µg/mL in data set [18]; over 128 µg/mL in data set [19]; 16 µg/mL (≈ 18.7 µM) in [20]; 8 µg/mL (≈ 9.34 µM) in data set [21]. In addition, the MIC was over 64 µg/mL in data set [35]; 16 µg/mL (≈ 18.7 µM) in data set [24]; 4 µg/mL (≈ 4.67 µM) in [25]; 8 µg/mL (≈ 9.34 µM) in data set [26]; 16 µg/mL (≈ 18.7 µM) in data set [27]; over 128 µg/mL in [28]. In addition, the Ratio in data set [30] was 8. The IC50 is over 100000 nM in data set [22] and 1.3 nM in data set [23].
